What was measured:
ML1a receptor = target: T1, ML1a receptor (Homo sapiens, UniProt P48039); assay: Melatonergic receptor binding activity, 2-[125I]-iodomelatonin, ML1a; settings: membrane homogenates of NIH-3T3 cells, 37° C. for 1 hour
T1 construct: expressed in transfected cells; pcDNA3)
Description: (§1) Melatonergic Receptor Binding Activity
(§2) (a) TME=50 mM Tris buffer containing 12.5 mM MgCl2, and 2 mM EDTA, pH 7.4 at 37° C., with concentrated HCl.
(§3) (b) Wash buffer: 20 mM Tris base containing 2 mM MgCl2, pH 7.4 at room temperature.
(§4) (c) 10^−4 M melatonin (10^−5 M final concentration).
(§5) (d) 2-[^125I]-iodomelatonin, […] final concentration.
2. Membrane Homogenates: The melatonin ML1α receptor cDNA was subcloned into pcDNA3 and introduced into NIH-3T3 cells using Lipofectamine. Transformed NIH-3T3 cells resistant to geneticin (G-418) were isolated, and single colonies expressing high levels of 2-[^125I]-iodomelatonin binding were isolated. Cells are maintained in DMEM supplemented with 10% calf serum and G-418 (0.5 g/liter). Cells are grown to confluency in T-175 flasks, scraped using Hank's balanced salt solution, and frozen at −80° C. For preparing membrane homogenates, pellets are thawed on ice, and re-suspended in TME buffer in the presence of 10 μg/ml aprotinin and leupeptin, and 100 μM phenylmethylsulfonylfluoride. The cells were then homogenized using a dounce homogenizer, and centrifuged. The resulting pellet was re-suspended with dounce homogenizer in TME (supplemented with the above protease inhibitors) and frozen. On the day of assay, a small aliquot was thawed on ice and re-suspended in the ice cold TME (1:50-1:100 v/v) and held on ice until assayed.
(§6) 3. Incubation: 37° C. for 1 hour. Reaction is terminated by filtration. Filters were washed 3 times.
(§7) The compounds of the present invention have affinity for receptors of the endogenous pineal hormone, melatonin, as determined in a receptor binding assays described above in Tables I to V for the ML1a and ML1b (human) receptors. Melatonin is involved in the regulation of a variety of biological rhythms and exerts its biological effects via interaction with specific receptors. There is evidence that administration of melatonin agonists are of clinical utility in the treatment of various conditions regulated by melatonin activity. Such conditions include depression, jet-lag, work-shift syndrome, sleep disorders, glaucoma, some disorders associated with reproduction, cancer benign prostatic hyperplasia, immune disorders and neuroendocrine disorders.

ML1b receptor = target: T2, ML1b receptor (Homo sapiens, UniProt P49286); assay: Melatonergic receptor binding activity, 2-[125I]-iodomelatonin, ML1b; settings: 37° C. for 1 hour
T2 construct: expressed in transfected cells
T2 sequence (P49286 1-362): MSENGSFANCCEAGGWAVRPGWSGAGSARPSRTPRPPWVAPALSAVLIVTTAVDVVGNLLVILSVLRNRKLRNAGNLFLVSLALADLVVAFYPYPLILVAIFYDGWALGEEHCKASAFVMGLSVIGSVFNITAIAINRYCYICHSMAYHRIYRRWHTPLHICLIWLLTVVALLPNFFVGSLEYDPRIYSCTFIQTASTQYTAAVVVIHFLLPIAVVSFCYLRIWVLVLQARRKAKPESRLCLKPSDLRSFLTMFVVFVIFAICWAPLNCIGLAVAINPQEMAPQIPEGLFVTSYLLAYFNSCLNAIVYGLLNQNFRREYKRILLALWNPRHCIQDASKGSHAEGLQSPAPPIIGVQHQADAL
Description: as §1, §2, §3, §4, §5, §6, §7

T1 sequence (P48039 whole entry): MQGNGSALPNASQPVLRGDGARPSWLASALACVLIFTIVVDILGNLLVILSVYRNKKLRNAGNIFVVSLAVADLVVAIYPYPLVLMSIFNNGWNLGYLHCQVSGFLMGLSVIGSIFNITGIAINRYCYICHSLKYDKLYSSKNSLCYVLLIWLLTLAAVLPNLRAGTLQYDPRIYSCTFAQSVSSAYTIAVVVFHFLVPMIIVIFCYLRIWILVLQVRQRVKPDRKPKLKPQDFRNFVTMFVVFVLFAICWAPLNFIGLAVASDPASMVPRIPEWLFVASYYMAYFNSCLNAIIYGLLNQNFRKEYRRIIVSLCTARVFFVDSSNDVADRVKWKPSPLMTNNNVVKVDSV

| Molecule | melting point [°C] | IC50 (ML1a receptor; Table V) [µM] | IC50 (ML1b receptor; Table V) [µM] | IC50 (ML1a receptor; Table III) [µM] | IC50 (ML1b receptor; Table III) [µM] | other results |
| --- | --- | --- | --- | --- | --- | --- |
| CC(=O)NCCCc1cccc2c1C[C@H](CCCCc1ccccc1)O2 (stereo in doubt) [Example 1, N-[3-[2-(4-Phenylbutyl)-2,3-dihydrobenzofuran-4-yl]propyl]acetamide] | 40 to 41 | – | – | – | – | IC50 (ML1a receptor; Table I): < 0.01 µM; IC50 (ML1b receptor; Table I): 0.01 to 0.25 µM |
| O=C(NCCCc1cccc2c1C[C@H](CCCCc1ccccc1)O2)C1CC1 (stereo in doubt) [Example 5, N-[3-[2-(4-Phenylbutyl)-2,3-dihydrobenzofuran-4-yl]propyl]cyclopropanecarboxamide] | 63 to 64 | – | – | – | – | IC50 (ML1a receptor; Table I): < 0.01 µM; IC50 (ML1b receptor; Table I): 0.01 to 0.25 µM |
| O=C(NCCCc1cccc2oc(CCCCc3ccccc3)cc12)C1CC1 [Example 7, N-[3-[2-(4-Phenylbutyl)benzofuran-4-yl]propyl]cyclopropanecarboxamide] | 70 to 71 | – | – | – | – | IC50 (ML1a receptor; Table II): 0.01 to 0.25 µM; IC50 (ML1b receptor; Table II): 0.01 to 0.25 µM |
| CC(=O)NC[C@@H]1C[C@H]1c1cccc2c1C[C@@H](CCCCc1ccccc1)O2 [Example 42, N-({2-[(2R)-2-(4-Phenylbutyl)(2,3-dihydrobenzo[b]furan-4-yl)]-(1R,2R)cyclopropyl}methyl)acetamide] | 65 to 66 | < 0.01 | < 0.01 | – | – | – |
| CCCC(=O)NC[C@@H]1C[C@H]1c1cccc2c1C[C@@H](CCCCc1ccccc1)O2 [Example 44, N-({2-[(2R)-2-(4-Phenylbutyl)(2,3-dihydrobenzo[b]furan-4-yl)]-(1R,2R)cyclopropyl}methyl)butanamide] | – | < 0.01 | < 0.01 | – | – | – |
| CC(C)C(=O)NC[C@@H]1C[C@H]1c1cccc2c1C[C@@H](CCCCc1ccccc1)O2 [Example 45, N-({2-[(2R)-2-(4-Phenylbutyl)(2,3-dihydrobenzo[b]furan-4-yl)]-(1R,2R)cyclopropyl}methyl)-2-methylpropanamide] | – | 0.01 to 0.25 | 0.01 to 0.25 | – | – | – |
| O=C(NC[C@@H]1C[C@H]1c1cccc2c1C[C@@H](CCCCc1ccccc1)O2)C1CC1 [Example 46, N-({2-[(2R)-2-(4-Phenylbutyl)(2,3-dihydrobenzo[b]furan-4-yl)]-(1R,2R)cyclopropyl}methyl)cyclopropylcarboxamide] | – | < 0.01 | 0.01 to 0.25 | – | – | – |
| CCNC(=O)NC[C@@H]1C[C@H]1c1cccc2c1C[C@@H](CCCCc1ccccc1)O2 [Example 47, N-({2-[(2R)-2-(4-Phenylbutyl)(2,3-dihydrobenzo[b]furan-4-yl)]-(1R,2R)cyclopropyl}methyl)(ethylamino)carboxamide] | 69 to 70 | 0.01 to 0.25 | 0.01 to 0.25 | – | – | – |
| CCNC(=O)NCC1CC1c1c(Cl)ccc2c1CC(CCCCc1ccccc1)O2 [Example 48, N-({2-[2R)-5-Chloro-2-(4-phenylbutyl)(2,3-dihydrobenzo[b]furan-4-yl)]-(1R,2R)cyclopropyl}methyl)(ethylamino)carboxamide] | 126 to 128 | 0.01 to 0.25 | 0.01 to 0.25 | – | – | – |
| N-3-(2-(2-Phenyleth-1-yl)benzofuran-3-yl)prop-1-yl Acetamide [Example 23] | – | – | – | 0.01 to 0.25 | 0.01 to 0.25 | – |
| N-3-(2-(2-Phenyleth-1-yl)benzofuran-3-yl)prop-1-yl Butyramide [Example 25] | – | – | – | 0.01 to 0.25 | 0.01 to 0.25 | – |
| N-3-(2-(2-Phenyleth-1-yl)benzofuran-3-yl)prop-1-yl Propanamide [Example 24] | – | – | – | 0.01 to 0.25 | 0.01 to 0.25 | – |
| N-3-(2-(2-Phenyleth-1-yl)benzofuran-3-yl)prop-1-yl-cyclopropanecarboxamide [Example 26] | – | – | – | 0.01 to 0.25 | 0.01 to 0.25 | – |
| N-3-(2-(3-Phenylprop-1-yl)benzofuran-3-yl)prop-1-yl Acetamide [Example 19] | – | – | – | < 0.01 | 0.01 to 0.25 | – |
| N-3-(2-(3-Phenylprop-1-yl)benzofuran-3-yl)prop-1-yl Butyramide [Example 21] | – | – | – | 0.01 to 0.25 | > 0.25 | – |
| N-3-(2-(3-Phenylprop-1-yl)benzofuran-3-yl)prop-1-yl Cyclopropanecarboxamide [Example 22] | – | – | – | 0.01 to 0.25 | > 0.25 | – |
| N-3-(2-(3-Phenylprop-1-yl)benzofuran-3-yl)prop-1-yl Propanamide [Example 20] | – | – | – | 0.01 to 0.25 | > 0.25 | – |
| N-({2-[(2R)-5,7-Dichloro-2-(4-phenylbutyl)(2,3-dihydrobenzo[b]furan-4-yl)](1R,2R)cyclopropyl}methyl)butanamide [Example 49] | – | > 0.25 | 0.01 to 0.25 | – | – | – |
| N-{3-[3-Chloro-2-(4-phenylbutyl)benzo[b]furan-4-yl]-propyl}ethoxycarboxamide [Example 27] | – | – | – | > 0.25 | > 0.25 | – |

— US6569894B1, “Arylalkylbenzofuran derivatives as melatonergic agents” (Bristol-Myers Squibb Company, priority 2001, dated 2003)
